Laboratory results taken from BigSolDB 2.1.

O=C1NC(=O)C(c2ccccc2)(c2ccccc2)N1
solubility (mole fraction)
Details	293.2 K	298.2 K	303.2 K	308.2 K	313.2 K
in n-propanol	0.00263	0.00304	0.00329	0.00358	0.00396
in water	1.29e-06	2.11e-06	2.42e-06	2.64e-06	2.94e-06
